Patent publication US10639303B2, “Alkaloids and their preparation and application as anti-HSV-1 agents” (OCEAN UNIVERSITY OF CHINA, priority 2015, dated 2020)
Read-outs that look alike come from different tables or passages of the source.

What was measured:
[1] = cytotoxicity (TC50) accompanying the CPE assay; format: cell-based; details: human
HSV-1 = assay: cytopathic effects (CPE) assay, antiviral activity against HSV-1 in Hep-2 cells; format: cell-based, Herpes Simplex Virus 1; details: Human alphaherpesvirus 1; HSV-1-infected Hep-2 cells, neutral red OD 540 nm, Reed-Muench; read-out: IC50 (anti-HSV-1 activity)
Protocol: The antiviral activities against HSV-1 were evaluated by a cytopathic effects (CPE) assay. Hep-2 monolayer cells were cultured with trypsin enzyme-digesting technique and transferred to 96-well plates. The HSV-1 virus was seeded in Hep-2 cells in 96-well plates, with 2% RPMI-1640 medium, and incubated at 37° C., 5% CO2. After more than 90% lesions, the virus-infected cells were repeatedly frozen and thawed 3 times, centrifuged, quantitative packed and stored at −80° C. Each tested compound was dissolved in 10 μl DMSO to make a homogeneous solution and the solution was diluted 10 times by half-and-half dilution with 2% RPMI-1640 medium. The gradient solution was added to the infected cells incubated in 96-well plates, Ribavirin was used as positive control. Normal cells were used as blank control. Infected cells were used as negative control. All samples were incubated at 37° C., 5% CO2. Pathological changes were observed once every hour, for 24 h. After 90% lesions in negative control, 1% neutral red was added after removal of liquid in 96-well plates. The OD value was determined at 540 nm. IC50 values of tested compounds were calculated by Reed-Muench methods.

| IC50 (HSV-1) [µM] | Compound | CC50 at 24 h [1] [µM] | CC50 at 24 h ([1]; Hep-2 cells, read-out: TC50) [µM] |
| --- | --- | --- | --- |
| 0.21 | CO[C@@H]1C(=O)Nc2ccc(/C=C/[C@]3(C)CC[C@H](O)[C@@H](C)C3)c(O)c2[C@@]1(O)c1ccccc1 | 36.9 |  |
| 0.07 | C=C(C)[C@@H]1CC[C@](C)(/C=C/c2ccc3c(c2O)[C@@](O)(c2ccccc2)[C@H](OC)C(=O)N3)O1 | 64.9 |  |
| 78 | NC(=O)c1ncn([C@@H]2O[C@H](CO)[C@@H](O)[C@H]2O)n1 [Ribavirin, reference compound] |  | > 10000 |
